Test results taken from PubChem BioAssay (NCI).
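Exposure lasted 48 hours, with cells grown in 96-well plates and compounds tested at five concentrations. Abbreviation: GI50, concentration required for 50% inhibition of growth. The concentration for full growth arrest is given as TGI.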

Tests used:
Assay in all cases: NCI-60 cell line screen, 48 h
786-0 renal = system: 786-0 renal
A498 renal = system: A498 renal
A549 NSCLC = system: A549 NSCLC
ACHN renal = system: ACHN renal
BT-549 breast = system: BT-549 breast
CAKI-1 renal = system: CAKI-1 renal
CCRF-CEM leukemia = system: CCRF-CEM leukemia
COLO 205 colon = system: COLO 205 colon
DU-145 prostate = system: DU-145 prostate
EKVX NSCLC = system: EKVX NSCLC
HCC-2998 colon = system: HCC-2998 colon
HCT-116 colon = system: HCT-116 colon
HCT-15 colon = system: HCT-15 colon
HL-60(TB) leukemia = system: HL-60(TB) leukemia
HOP-62 NSCLC = system: HOP-62 NSCLC
HOP-92 NSCLC = system: HOP-92 NSCLC
HS 578T breast = system: HS 578T breast
HT29 colon = system: HT29 colon
IGROV1 ovarian = system: IGROV1 ovarian
K-562 leukemia = system: K-562 leukemia
KM12 colon = system: KM12 colon
LOX IMVI melanoma = system: LOX IMVI melanoma
M14 melanoma = system: M14 melanoma
MALME-3M melanoma = system: MALME-3M melanoma
MCF7 breast = system: MCF7 breast
MDA-MB-231 breast = system: MDA-MB-231 breast
MDA-MB-435 = system: MDA-MB-435
MOLT-4 leukemia = system: MOLT-4 leukemia
NCI-H226 lung = system: NCI-H226 lung
NCI-H23 lung = system: NCI-H23 lung
NCI-H460 lung = system: NCI-H460 lung
NCI-H522 lung = system: NCI-H522 lung
NCI/ADR-RES ovarian = system: NCI/ADR-RES ovarian
OVCAR-3 ovarian = system: OVCAR-3 ovarian
OVCAR-4 ovarian = system: OVCAR-4 ovarian
OVCAR-5 ovarian = system: OVCAR-5 ovarian
OVCAR-8 ovarian = system: OVCAR-8 ovarian
PC-3 prostate = system: PC-3 prostate
RPMI-8226 leukemia = system: RPMI-8226 leukemia
RXF 393 renal = system: RXF 393 renal
SF-268 CNS = system: SF-268 CNS
SF-295 CNS = system: SF-295 CNS
SF-539 CNS = system: SF-539 CNS
SK-MEL-2 melanoma = system: SK-MEL-2 melanoma
SK-MEL-28 melanoma = system: SK-MEL-28 melanoma
SK-MEL-5 melanoma = system: SK-MEL-5 melanoma
SK-OV-3 ovarian = system: SK-OV-3 ovarian
SN12C renal = system: SN12C renal
SNB-19 CNS = system: SNB-19 CNS
SNB-75 CNS = system: SNB-75 CNS
SR leukemia = system: SR leukemia
SW-620 colon = system: SW-620 colon
T-47D breast = system: T-47D breast
TK-10 renal = system: TK-10 renal
U251 CNS = system: U251 CNS
UACC-257 melanoma = system: UACC-257 melanoma
UACC-62 melanoma = system: UACC-62 melanoma
UO-31 renal = system: UO-31 renal

## c1ccc2cc(C[n+]3ccn(CCCCCCCCCCCCn4cc[n+](Cc5ccc6ccccc6c5)c4)c3)ccc2c1
786-0 renal
  GI50: 1730 nM
  TGI: 6930 nM
A498 renal
  GI50: 515 nM
  TGI: 1620 nM
A549 NSCLC
  GI50: 744 nM
  TGI: 3570 nM
ACHN renal
  GI50: 1330 nM
  TGI: 7710 nM
BT-549 breast
  GI50: 467 nM
  TGI: 1170 nM
CAKI-1 renal
  GI50: 3550 nM
  TGI: 25000 nM
CCRF-CEM leukemia
  GI50: 732 nM
  TGI: 2400 nM
COLO 205 colon
  GI50: 441 nM
  TGI: 833 nM
DU-145 prostate
  GI50: 1030 nM
  TGI: 3800 nM
EKVX NSCLC
  GI50: 894 nM
  TGI: 4200 nM
HCC-2998 colon
  GI50: 1090 nM
  TGI: 4740 nM
HCT-116 colon
  GI50: 848 nM
  TGI: 3210 nM
HCT-15 colon
  GI50: 1480 nM
  TGI: 9150 nM
HL-60(TB) leukemia
  GI50: 545 nM
  TGI: 1080 nM
HOP-62 NSCLC
  GI50: 815 nM
  TGI: 2650 nM
HOP-92 NSCLC
  GI50: 500 nM
  TGI: 1400 nM
HS 578T breast
  GI50: 693 nM
  TGI: 2480 nM
HT29 colon
  GI50: 693 nM
  TGI: 1870 nM
IGROV1 ovarian
  GI50: 521 nM
  TGI: 1160 nM
K-562 leukemia
  GI50: 429 nM
  TGI: 1190 nM
KM12 colon
  GI50: 553 nM
  TGI: 1410 nM
LOX IMVI melanoma
  GI50: 483 nM
  TGI: 941 nM
M14 melanoma
  GI50: 835 nM
  TGI: 3500 nM
MALME-3M melanoma
  GI50: 469 nM
  TGI: 1250 nM
MCF7 breast
  GI50: 512 nM
  TGI: 1170 nM
MDA-MB-231 breast
  GI50: 866 nM
  TGI: 2880 nM
MDA-MB-435
  GI50: 682 nM
  TGI: 2530 nM
MOLT-4 leukemia
  GI50: 508 nM
  TGI: 1020 nM
NCI-H226 lung
  GI50: 984 nM
  TGI: 5520 nM
NCI-H23 lung
  GI50: 722 nM
  TGI: 2400 nM
NCI-H460 lung
  GI50: 814 nM
  TGI: 2960 nM
NCI-H522 lung
  GI50: 470 nM
  TGI: 1250 nM
NCI/ADR-RES ovarian
  GI50: 8090 nM
  TGI: 25000 nM
OVCAR-3 ovarian
  GI50: 763 nM
  TGI: 2400 nM
OVCAR-4 ovarian
  GI50: 694 nM
  TGI: 2530 nM
OVCAR-5 ovarian
  GI50: 863 nM
  TGI: 3680 nM
OVCAR-8 ovarian
  GI50: 783 nM
  TGI: 2890 nM
PC-3 prostate
  GI50: 794 nM
  TGI: 2810 nM
RPMI-8226 leukemia
  GI50: 898 nM
  TGI: 4150 nM
RXF 393 renal
  GI50: 546 nM
  TGI: 1670 nM
SF-268 CNS
  GI50: 746 nM
  TGI: 3010 nM
SF-295 CNS
  GI50: 654 nM
  TGI: 2130 nM
SF-539 CNS
  GI50: 807 nM
  TGI: 2910 nM
SK-MEL-2 melanoma
  GI50: 573 nM
  TGI: 1270 nM
SK-MEL-28 melanoma
  GI50: 779 nM
  TGI: 2860 nM
SK-MEL-5 melanoma
  GI50: 502 nM
  TGI: 1040 nM
SK-OV-3 ovarian
  GI50: 661 nM
  TGI: 1800 nM
SN12C renal
  GI50: 652 nM
  TGI: 2090 nM
SNB-19 CNS
  GI50: 773 nM
  TGI: 3490 nM
SNB-75 CNS
  GI50: 381 nM
  TGI: 1340 nM
SR leukemia
  GI50: 679 nM
  TGI: 1670 nM
SW-620 colon
  GI50: 815 nM
  TGI: 3300 nM
T-47D breast
  GI50: 554 nM
  TGI: 1780 nM
TK-10 renal
  GI50: 992 nM
  TGI: 4450 nM
U251 CNS
  GI50: 521 nM
  TGI: 2530 nM
UACC-257 melanoma
  GI50: 589 nM
  TGI: 1530 nM
UACC-62 melanoma
  GI50: 725 nM
  TGI: 2430 nM
UO-31 renal
  GI50: 2660 nM
  TGI: 8740 nM
